For one data set, the system named is MV-4-11. Kind of data set: MTT assay, cytotoxic effect on MV-4-11. To be noted: Table 2; metabolites; MTT after 96 h. The data set is classed as cell-based, human. As for the experimental part:
(§1) C-1a: Determination of the Cytotoxic Effect of the ADCs Directed Against CD123 and CXCR5
(§2) The analysis of the cytotoxic effect of the exemplary ADCs was carried out with various cell lines:
MV-4-11: human biphenotypic B myelomonocytic leukaemia cells obtained from peripheral blood, ATCC-CRL-9591, standard medium: IMDM (ATCC: 30-2005), +10% heat inactivated FCS (Gibco, No. 10500-064); CD123-positive
(§3) The cells were cultivated by the standard method, with the growth media specified in section C-1. The test was carried out by detaching the cells with a solution of Accutase in PBS (from Biochrom AG #L2143), pelletizing, resuspending in culture medium, counting and sowing into a 96-well culture plate with white bottom (from Costar #3610) (NCI H292: 2500 cells/well; SK-HEP-1: 1000 cells/well; KPL-4: 1200 cells/well; in total volume 100 μl). […] The suspension cells were counted and sown into a 96-well culture plate with white bottom (from Costar #3610) (#3610) (MOLM-13: 2000 cells/well; NB4: 7000 cells/well; MV-4-11: 5000 cells/well in a total volume of 100 μl). […] After 96 h, the cell proliferation was detected using the MTT assay (ATCC, Manassas, Va., USA, catalogue No. 30-1010K). […] The dye formed was detected at 570 nm (Infinite M1000 pro, Tecan). The measured data were used to calculate the IC50 of the growth inhibition using the DRC (dose response curve). […]

Data set [1] concerns the target T1, human kinesin spindle protein KSP/Eg5 (Homo sapiens, UniProt P52732).
T1 construct: The motor domain of the human kinesin spindle protein KSP/Eg5; purchased tebu-bio/Cytoskeleton Inc 027EG01-XL
T1 sequence (P52732 18-359 limits assumed): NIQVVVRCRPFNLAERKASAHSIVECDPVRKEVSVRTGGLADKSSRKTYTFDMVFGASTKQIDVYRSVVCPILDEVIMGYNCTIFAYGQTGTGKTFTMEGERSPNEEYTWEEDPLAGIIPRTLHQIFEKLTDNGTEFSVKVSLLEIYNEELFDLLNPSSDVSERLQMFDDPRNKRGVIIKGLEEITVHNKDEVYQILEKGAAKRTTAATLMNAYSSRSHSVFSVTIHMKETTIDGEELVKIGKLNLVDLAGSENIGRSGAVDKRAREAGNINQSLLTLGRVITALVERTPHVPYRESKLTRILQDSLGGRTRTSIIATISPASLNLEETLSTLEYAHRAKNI
In words: Inhibition of the kinesin spindle protein KSP/Eg5 (ATPase activity, malachite green). The data set is classed as biochemical. As to conditions: motor domain 10 nM, microtubuli, ATP 500 μM, 2 h RT. As for the experimental part:
The motor domain of the human kinesin spindle protein KSP/Eg5 (tebu-bio/Cytoskeleton Inc, No. 027EG01-XL) was incubated in a concentration of 10 nM with microtubuli (bovine or porcine, tebu-bio/Cytoskeleton Inc) stabilized with 50 μg/ml taxol (Sigma No. T7191-5MG) for 5 min at RT in 15 mM PIPES, pH 6.8 (5 mM MgCl2 and 10 mM DTT, Sigma). […] Incubation was at RT for 2 h. ATPase activity was detected by detecting the inorganic phosphate formed using malachite green (Biomol). […] The positive controls used were monastrol (Sigma, M8515-1 mg) and ispinesib (AdooQ Bioscience A10486). The individual data of the dose-activity curve are eight-fold determinations. The IC50 values are means of two independent experiments.

In a further data set the test system is KPL-4. Kind of data set: MTT assay, cytotoxic effect on KPL-4. The data set is classed as cell-based, human. As to conditions: Table 2; metabolites; MTT after 96 h. The method, then: KPL4: human breast cancer cell line, Bayer Pharma AG (identity checked and confirmed on 19 Jul. 2012 at DSMZ), standard medium: RPMI 1640 (from Gibco; #21875-059, stab. L-glutamine)+10% heat inactivated FCS (Gibco, No. 10500-064); HER2-positive.
The cells were cultivated by the standard method, with the growth media specified in section C-1. The test was carried out by detaching the cells with a solution of Accutase in PBS (from Biochrom AG #L2143), pelletizing, resuspending in culture medium, counting and sowing into a 96-well culture plate with white bottom (from Costar #3610) (NCI H292: 2500 cells/well; SK-HEP-1: 1000 cells/well; KPL-4: 1200 cells/well; in total volume 100 μl). The cells were then incubated in an incubator at 37° C. and 5% carbon dioxide. After 48 h, the medium was replaced. […] The suspension cells were counted and sown into a 96-well culture plate with white bottom (from Costar #3610) (#3610) (MOLM-13: 2000 cells/well; NB4: 7000 cells/well; MV-4-11: 5000 cells/well in a total volume of 100 μl). […] After 96 h, the cell proliferation was detected using the MTT assay (ATCC, Manassas, Va., USA, catalogue No. 30-1010K). […] The dye formed was detected at 570 nm (Infinite M1000 pro, Tecan). The measured data were used to calculate the IC50 of the growth inhibition using the DRC (dose response curve). […]

Another data set relates to Caco-2 cells. Kind of data set: Cell permeability, flux assay using Caco-2 cells. The data set is classed as in vitro ADME. As to conditions: for Papp (B-A): Caco-2, basal to apical, 2 hours. The method, then: The cell permeability of a substance can be investigated by means of in vitro testing in a flux assay using Caco-2 cells [M. D. Troutman and D. R. Thakker, Pharm. […] For this purpose, the cells were cultured for 15-16 days on 24-well filter plates. For the determination of permeation, the respective test substance was applied in a HEPES buffer to the cells either apically (A) or basally (B) and incubated for 2 hours. After 0 hours and after 2 hours, samples were taken from the cis and trans compartments. The samples were separated by HPLC (Agilent 1200, Böblingen, Germany) using reverse phase columns. The HPLC system was coupled via a Turbo Ion Spray Interface to a Triple Quadropole mass spectrometer API 4000 (AB SCIEX Deutschland GmbH, Darmstadt, Germany).
Of critical importance for toxophores which are released intracellularly is the permeability from B to A [Papp (B-A)] and the ratio of Papp (B-A) to Papp (A-B) (efflux ratio): The lower this permeability, the slower the active and passive transport processes of the substance through the monolayer of Caco-2 cells. If the efflux ratio, moreover, gives no indications as to active transport, the substance, following intracellular release, can remain in the cell for longer. As a consequence, the time available for interaction with the biochemical target (here: kinesin spindle protein KSP/Eg5) also increases.

For the next data set, the system named is MOLM-13. Kind of data set: MTT assay, cytotoxic effect on MOLM-13. The data set is classed as cell-based, human. To be noted: Table 2; metabolites; MTT after 96 h. The method, then: as §1, §2
MOLM-13: human acute monocytic leukaemia cells (AML-M5a), DSMZ, No. ACC 554, standard medium: RPMI 1640 (from Gibco; #21875-059, stab. L-glutamine)+20% heat inactivated FCS (Gibco, No. 10500-064); CD123-positive.
as §3

The test system of another data set is NCI-H292. In words: MTT assay, cytotoxic effect on NCI-H292. The data set is classed as cell-based, human. As to conditions: Table 2, metabolites, MTT after 96 h. As for the experimental part:
NCI-H292: human mucoepidermoid lung carcinoma cells, ATCC-CRL-1848, standard medium: RPMI 1640 (Biochrom; #FG1215, stab. glutamine)+10% FCS (Sigma; #F2442), TWEAKR-positive; EGFR-positive,
(§4) The cells were cultivated by the standard method, with the growth media specified in section C-1. The test was carried out by detaching the cells with a solution of Accutase in PBS (from Biochrom AG #L2143), pelletizing, resuspending in culture medium, counting and sowing into a 96-well culture plate with white bottom (from Costar #3610) (NCI H292: 2500 cells/well; SK-HEP-1: 1000 cells/well; KPL-4: 1200 cells/well; in total volume 100 μl). The cells were then incubated in an incubator at 37° C. and 5% carbon dioxide. After 48 h, the medium was replaced. The antibody drug conjugates in 10 μl of culture medium in concentrations from 10^−5M to 10^−13M were then pipetted to the cells (in triplicate), and the assay was then incubated in an incubator at 37° C. and 5% carbon dioxide. The suspension cells were counted and sown into a 96-well culture plate with white bottom (from Costar #3610) (#3610) (MOLM-13: 2000 cells/well; NB4: 7000 cells/well; MV-4-11: 5000 cells/well in a total volume of 100 μl). After 6 hours of incubation at 37° C. and 5% carbon dioxide, the medium was changed and the antibody-drug conjugates or metabolites were added by pipette in 10 μl of culture medium in concentrations of 10^−5M to 10^−13M to the cells (triplicates) in 90 μl. The batch was incubated in an incubator at 37° C. and 5% carbon dioxide. After 96 h, the cell proliferation was detected using the MTT assay (ATCC, Manassas, Va., USA, catalogue No. 30-1010K). To this end, the MTT reagent was incubated with the cells for 4 h, followed by lysis of the cells overnight by addition of the detergent. The dye formed was detected at 570 nm (Infinite M1000 pro, Tecan). The measured data were used to calculate the IC50 of the growth inhibition using the DRC (dose response curve). The proliferation of cells which were not treated with test substance but were otherwise identically treated was defined as the 100% figure.

In a further data set the test system is SKHep-1. Kind of data set: MTT assay, cytotoxic effect on SK-HEP-1. To be noted: Table 2, metabolites, MTT after 96 h. The data set is classed as cell-based, human. As for the experimental part: SK-HEP-1: human liver cell cancer line, ATCC No. HTB-52, standard medium: MEM with Earle's salts+Glutamax I (Invitrogen 41090)+10% heat inactivated FCS (from Gibco, No. 10500-064); TWEAKR-positive
as §4, with “The proliferation of cells which were not treated with test substance but were otherwise identically treated was defined as the 100% figure.” left out

Structures are written as SMILES. Counter-ions that a name gives are not always drawn.

As to `CC(C)(C)[C@H](c1cc(-c2cc(F)ccc2F)cn1Cc1ccccc1)N(CC[C@H](N)C(=O)NCCNC(=O)[C@@H](CCC(=O)O)NC(=O)CNC(=O)CC(SC[C@H](N)C(=O)O)C(=O)O)C(=O)CO.O=C(O)C(F)(F)F` (stereo partly drawn) [Example M1, N-(3-{[(2R)-2-Amino-2-carboxyethyl]sulfanyl}-3-carboxypropanoyl)glycyl-N-[2-({(25)-2-amino-4-[{(1R)-1-[1-benzyl-4-(2,5-difluorophenyl)-1H-pyrrol-2-yl]-2,2-dimethylpropyl}(glycoloyl)amino]butanoyl}amino)ethyl]-D-alpha-glutamine trifluoroacetic Acid Salt], the concentration for half-maximal inhibition (IC50) in the data set with MV-4-11 turned out to be 302 nM; in data set [1], 2.13 nM; in the data set with KPL-4 it was 500 nM; with MOLM-13 it was 125 nM; in the data set on NCI-H292, 500 nM; in the data set on SKHep-1, 98.8 nM. Further, in the data set on Caco-2 cells, the “Papp (B-A)” value came out at 0.12 ×10⁻⁶ cm/s. The “Efflux ratio compared with the reference metabolites” value in the data set with Caco-2 cells (Caco-2, in words) is listed as “reduced efflux ratio”. Further, in the data set with Caco-2 cells (Caco-2, in words), the “Transport from the cell compared with the reference metabolites” value was “reduced transport from the cell”. Also, the Efflux ratio in the data set on Caco-2 cells (Caco-2, ratio of Papp (B-A) to Papp (A-B)) was 0.8.
On to `CC(C)(C)[C@H](c1cc(-c2cc(F)ccc2F)cn1Cc1ccccc1)N(CC[C@H](N)C(=O)NCCNC(=O)CNC(=O)CC(SC[C@H](N)C(=O)O)C(=O)O)C(=O)CO` (mixture of isomers) [Example Rm1, 4-[(2-{[2-({(2S)-2-Amino-4-[{(1R)-1-[1-benzyl-4-(2,5-difluorophenyl)-1H-pyrrol-2-yl]-2,2-dimethylpropyl}(glycoloyl)amino]butanoyl}amino)ethyl]amino}-2-oxoethyl)amino]-2-{[(2R)-2-amino-2-carboxyethyl]sulfanyl}-4-oxobutanoic Acid Trifluoroacetic Acid Salt], for which the “Papp (B-A)” value with Caco-2 cells was 1.3 ×10⁻⁶ cm/s. Also, the IC50 in the data set on NCI-H292 (Homo sapiens, NCI-H292) came to 63.6 nM; with SKHep-1 (Homo sapiens, SK-HEP1) it was 19 nM.
In the case of `CC(C)(C)[C@H](c1cc(-c2cc(F)ccc2F)cn1Cc1ccccc1)N(CC[C@H](N)C(=O)NCCNC(=O)CNC(=O)C(CC(=O)O)SC[C@H](N)C(=O)O)C(=O)CO` (mixture of isomers) [Example Rm2, 4-[(2-{[2-({(2S)-2-Amino-4-[{(1R)-1-[1-benzyl-4-(2,5-difluorophenyl)-1H-pyrrol-2-yl]-2,2-dimethylpropyl}(glycoloyl)amino]butanoyl}amino)ethyl]amino}-2-oxoethyl)amino]-3-{[(2R)-2-amino-2-carboxyethyl]sulfanyl}-4-oxobutanoic Acid Trifluoroacetic Acid Salt], the IC50 in the data set on NCI-H292 (Homo sapiens, NCI-H292) amounted to 276 nM; in the data set with SKHep-1 (Homo sapiens, SK-HEP1), 89 nM.

The values are drawn from patent publication US11433140B2, “Specific antibody drug conjugates (ADCs) having KSP inhibitors” (Bayer Pharma Aktiengesellschaft, priority 2016, dated 2022).
